# From BindingDB's records for doi:10.1016/j.bmc.2019.06.020 (Shanghai Jiao Tong University, 2019)
# How the values were obtained:
# [1] = molecular target: T1, Polypeptide N-acetylgalactosaminyltransferase 2 (Homo sapiens, UniProt Q10471); test: Binding affinity of human recombinant FLAG-tagged ppGalNAcT2 expressed in HEK293 cells assessed as dissociation rate by SPR analysis
# [2] = molecular target: T1, Polypeptide N-acetylgalactosaminyltransferase 2; test: Binding affinity of human recombinant FLAG-tagged ppGalNAcT2 expressed in HEK293 cells assessed as association rate by SPR analysis; conditions: read-out: kon (M-1-s-1)
# T1 sequence (Q10471 whole entry): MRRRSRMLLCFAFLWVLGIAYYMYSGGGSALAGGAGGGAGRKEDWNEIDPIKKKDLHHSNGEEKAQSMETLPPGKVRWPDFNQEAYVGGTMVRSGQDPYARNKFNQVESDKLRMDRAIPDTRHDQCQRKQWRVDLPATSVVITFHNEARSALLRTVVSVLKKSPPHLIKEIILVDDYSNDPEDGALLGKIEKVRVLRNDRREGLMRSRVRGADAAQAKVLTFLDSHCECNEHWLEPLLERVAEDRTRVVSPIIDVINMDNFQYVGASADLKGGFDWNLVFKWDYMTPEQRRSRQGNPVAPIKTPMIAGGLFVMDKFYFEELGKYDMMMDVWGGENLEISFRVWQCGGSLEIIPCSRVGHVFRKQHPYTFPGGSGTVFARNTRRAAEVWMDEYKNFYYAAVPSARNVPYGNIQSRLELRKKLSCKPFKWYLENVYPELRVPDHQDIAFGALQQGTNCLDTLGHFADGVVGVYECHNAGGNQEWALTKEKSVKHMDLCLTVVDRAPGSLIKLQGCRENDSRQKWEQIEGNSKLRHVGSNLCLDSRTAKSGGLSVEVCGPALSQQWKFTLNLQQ
smiles,measurement,setting,value
"O=C(O)c1cc(O)c(O)c(O)c1 [Gallic Acid, F]",koff,[1],0.00134 s⁻¹
same,kon,[2],1450 M⁻¹ s⁻¹
O=c1oc2c(O)c(O)ccc2c2cc(O)c(O)cc12,koff,[1],0.00104 s⁻¹
same,kon,[2],3530 M⁻¹ s⁻¹
O=c1oc2c(O)c(O)cc3c(=O)oc4c(O)c(O)cc1c4c23 [Elagic Acid],koff,[1],0.000879 s⁻¹
same,kon,[2],2370 M⁻¹ s⁻¹
